According to patent publication EP4722207A1, “OXOISOINDOLINYL-SUBSTITUTED TETRAHYDROPYRIMIDINEDIONE DERIVATIVE AND USE THEREOF” (Gluetacs Therapeutics (Shanghai) Co., Ltd., priority 2023, dated 2024):

How the values were obtained:
IKZF1 = target: T1, IKZF1 (Homo sapiens, UniProt Q13422+Q96SW2); experiment: Western-blot assay, substrate protein degradation in hPBMCs: IKZF1; type: cell-based; conditions: compounds at 50 nM and 500 nM, 24 hours
T1 construct: effects of the compounds of the present disclosure on the expression of target proteins in cells; endogenous in cells; host or cells: human PBMCs (hPBMCs)

IKZF3 = target: T2, IKZF3 (Homo sapiens, UniProt Q96SW2+Q9UKT9); experiment: Western-blot assay, substrate protein degradation in hPBMCs: IKZF3; type: cell-based; conditions: compounds at 50 nM and 500 nM, 24 hours
T2 construct: effects of the compounds of the present disclosure on the expression of target proteins in cells; endogenous in cells; host or cells: human PBMCs (hPBMCs)
T2 sequence (Q9UKT9 whole entry): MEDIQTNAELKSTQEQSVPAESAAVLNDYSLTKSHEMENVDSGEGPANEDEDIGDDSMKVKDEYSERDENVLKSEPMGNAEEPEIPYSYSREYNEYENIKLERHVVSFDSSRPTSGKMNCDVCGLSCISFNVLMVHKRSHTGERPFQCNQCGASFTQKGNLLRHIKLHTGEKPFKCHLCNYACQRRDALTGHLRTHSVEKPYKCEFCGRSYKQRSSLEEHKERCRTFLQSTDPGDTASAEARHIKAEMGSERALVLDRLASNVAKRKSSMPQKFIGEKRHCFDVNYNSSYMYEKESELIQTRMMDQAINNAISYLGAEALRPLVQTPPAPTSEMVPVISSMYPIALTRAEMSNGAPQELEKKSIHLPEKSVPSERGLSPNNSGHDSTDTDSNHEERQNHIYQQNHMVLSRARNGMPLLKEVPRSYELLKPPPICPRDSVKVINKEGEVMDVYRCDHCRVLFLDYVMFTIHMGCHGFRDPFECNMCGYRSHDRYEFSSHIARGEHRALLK
T2 sequence (Q96SW2 whole entry): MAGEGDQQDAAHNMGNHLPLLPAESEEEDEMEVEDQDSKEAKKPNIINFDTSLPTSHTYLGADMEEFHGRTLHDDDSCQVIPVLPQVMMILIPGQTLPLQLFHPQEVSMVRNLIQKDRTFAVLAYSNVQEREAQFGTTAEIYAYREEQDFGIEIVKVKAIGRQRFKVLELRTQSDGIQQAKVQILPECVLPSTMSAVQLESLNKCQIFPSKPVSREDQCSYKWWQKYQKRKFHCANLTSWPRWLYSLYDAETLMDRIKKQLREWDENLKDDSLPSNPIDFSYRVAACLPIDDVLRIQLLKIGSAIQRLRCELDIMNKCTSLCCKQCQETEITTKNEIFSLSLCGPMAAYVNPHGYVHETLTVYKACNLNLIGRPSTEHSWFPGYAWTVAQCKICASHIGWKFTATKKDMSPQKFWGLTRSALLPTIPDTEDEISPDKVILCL
T2 sequence (Q16531 whole entry partner): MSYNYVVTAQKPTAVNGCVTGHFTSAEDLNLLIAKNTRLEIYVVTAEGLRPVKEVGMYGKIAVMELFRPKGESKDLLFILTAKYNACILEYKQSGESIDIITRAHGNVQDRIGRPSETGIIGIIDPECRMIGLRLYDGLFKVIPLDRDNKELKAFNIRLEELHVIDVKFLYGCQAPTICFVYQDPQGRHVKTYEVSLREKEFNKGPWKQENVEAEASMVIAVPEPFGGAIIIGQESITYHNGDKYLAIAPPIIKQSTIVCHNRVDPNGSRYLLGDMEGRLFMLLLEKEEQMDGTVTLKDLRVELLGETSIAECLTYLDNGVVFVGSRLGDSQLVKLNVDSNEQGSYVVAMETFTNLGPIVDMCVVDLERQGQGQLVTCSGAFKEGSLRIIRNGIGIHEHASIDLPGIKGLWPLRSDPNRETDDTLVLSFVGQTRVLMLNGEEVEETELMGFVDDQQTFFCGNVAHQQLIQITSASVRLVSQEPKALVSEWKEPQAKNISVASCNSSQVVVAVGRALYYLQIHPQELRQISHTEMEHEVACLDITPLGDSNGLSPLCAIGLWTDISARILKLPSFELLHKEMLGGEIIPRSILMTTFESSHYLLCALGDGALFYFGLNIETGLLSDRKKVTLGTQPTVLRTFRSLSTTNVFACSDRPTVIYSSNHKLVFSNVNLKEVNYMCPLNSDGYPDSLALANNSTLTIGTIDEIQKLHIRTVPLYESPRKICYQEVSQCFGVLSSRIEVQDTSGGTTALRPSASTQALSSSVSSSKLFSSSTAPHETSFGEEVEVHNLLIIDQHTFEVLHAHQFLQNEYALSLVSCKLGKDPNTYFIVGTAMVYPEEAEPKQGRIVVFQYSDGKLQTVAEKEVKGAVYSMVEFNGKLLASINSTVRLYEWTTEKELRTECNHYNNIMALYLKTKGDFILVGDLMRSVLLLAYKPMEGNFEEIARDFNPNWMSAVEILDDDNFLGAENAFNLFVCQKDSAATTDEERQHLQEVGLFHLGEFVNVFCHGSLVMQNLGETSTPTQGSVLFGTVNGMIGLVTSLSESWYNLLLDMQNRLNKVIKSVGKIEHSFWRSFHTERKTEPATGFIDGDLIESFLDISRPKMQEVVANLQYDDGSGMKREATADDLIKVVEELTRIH

GSPT1 = target: T3, GSPT1 (Homo sapiens, UniProt P15170+Q96SW2); experiment: Western-blot assay, substrate protein degradation in hPBMCs: GSPT1; type: cell-based; conditions: compounds at 50 nM and 500 nM, 24 hours
T3 construct: effects of the compounds of the present disclosure on the expression of target proteins in cells; endogenous in cells; host or cells: human PBMCs (hPBMCs)
T3 sequence (P15170 whole entry): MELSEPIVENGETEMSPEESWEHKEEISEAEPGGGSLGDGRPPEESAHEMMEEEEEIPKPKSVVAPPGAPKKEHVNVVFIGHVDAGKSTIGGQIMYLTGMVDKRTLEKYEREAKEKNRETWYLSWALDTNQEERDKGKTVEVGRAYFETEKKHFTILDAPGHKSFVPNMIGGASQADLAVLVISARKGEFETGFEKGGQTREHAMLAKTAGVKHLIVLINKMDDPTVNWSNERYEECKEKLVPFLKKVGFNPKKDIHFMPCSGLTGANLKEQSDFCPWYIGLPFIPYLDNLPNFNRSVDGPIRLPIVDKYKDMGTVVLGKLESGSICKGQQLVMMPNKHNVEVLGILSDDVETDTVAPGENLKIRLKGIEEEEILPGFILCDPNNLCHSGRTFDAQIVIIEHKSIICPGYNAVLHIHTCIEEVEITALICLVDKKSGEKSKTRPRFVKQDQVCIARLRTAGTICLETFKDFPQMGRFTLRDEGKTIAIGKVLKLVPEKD
T3 sequence (Q96SW2 whole entry): as the sequence (Q96SW2 whole entry) above
T3 sequence (Q16531 whole entry partner): as the sequence (Q16531 whole entry partner) above

IKZF2 = target: T4, IKZF2 (Homo sapiens, UniProt Q96SW2+Q9UKS7); experiment: Western-blot assay, substrate protein degradation in hPBMCs: IKZF2; type: cell-based; conditions: compounds at 50 nM and 500 nM, 24 hours
T4 construct: effects of the compounds of the present disclosure on the expression of target proteins in cells; endogenous in cells; host or cells: human PBMCs (hPBMCs)
T4 sequence (Q9UKS7 whole entry): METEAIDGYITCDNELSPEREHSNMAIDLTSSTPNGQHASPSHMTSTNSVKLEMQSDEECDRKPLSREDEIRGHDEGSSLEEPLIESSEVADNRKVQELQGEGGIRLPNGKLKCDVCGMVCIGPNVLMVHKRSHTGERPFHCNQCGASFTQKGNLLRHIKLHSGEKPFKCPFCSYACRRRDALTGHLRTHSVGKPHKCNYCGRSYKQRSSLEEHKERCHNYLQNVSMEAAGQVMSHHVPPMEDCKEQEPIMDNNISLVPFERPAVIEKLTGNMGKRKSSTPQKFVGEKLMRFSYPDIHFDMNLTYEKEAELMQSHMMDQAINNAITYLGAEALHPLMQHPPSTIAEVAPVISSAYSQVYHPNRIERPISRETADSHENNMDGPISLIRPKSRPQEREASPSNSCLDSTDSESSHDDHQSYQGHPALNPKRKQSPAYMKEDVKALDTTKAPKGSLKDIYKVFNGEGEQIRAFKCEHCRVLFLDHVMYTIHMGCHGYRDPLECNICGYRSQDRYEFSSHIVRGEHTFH
T4 sequence (Q96SW2 whole entry): as the sequence (Q96SW2 whole entry) above
T4 sequence (Q16531 whole entry partner): as the sequence (Q16531 whole entry partner) above

MV-4-11 = experiment: Cell viability assay (CellTiter-Meiluncell Luminescent), tumor cell proliferation, MV-4-11; conditions: Homo sapiens, MV4-11, 96 h; for IC50: read-out: inhibitory activity (IC50, nM) against tumor cells proliferation, MV-4-11; for inhibition at 0.01 µM: read-out: Inhibition Rate at 10 nM (%); for inhibition at 0.5 µM: read-out: Inhibition Rate at 500 nM (%)
Protocol: The tumor cells used herein were cultured in a cell culture medium listed in table 2 at 37°C in an incubator with 5% CO2. Prior to experimentation, all cell lines used were correctly identified by STR profiling, and tested negative for mycoplasma contamination using a mycoplasma detection kit through routine screenings.
On the following day, the test compounds of the present disclosure were subjected to serial dilution. […] Subsequently, 0.5 µL of the test compound dilution was transferred into the 96-well plate containing the cells, with each well containing 100 µL of cell culture medium. […] Into the 96-well plate, the diluted test compounds and corresponding detection reagents were added, resulting in final test compound concentrations of 500 nM and 10 nM, respectively. The experimental procedure is described below using the diluted 2 µM test compound as an example.
After the cells were treated with the compounds of the present disclosure for a specified period, the cell viability assay reagent was added to the culture medium according to the kit's instructions to determine cell viability. […] All controls were treated using the same procedure as the compounds of the present disclosure. The growth inhibition curves for the compounds of the present disclosure were plotted using Prism GraphPad software, and the IC50 values were calculated therefrom.

CK1α = target: T5, CK1α (Homo sapiens, UniProt P48729+Q96SW2); experiment: Western-blot assay, substrate protein degradation in hPBMCs: CK1α; type: cell-based; conditions: compounds at 50 nM and 500 nM, 24 hours
T5 construct: effects of the compounds of the present disclosure on the expression of target proteins in cells; endogenous in cells; host or cells: human PBMCs (hPBMCs)
T5 sequence (P48729 whole entry): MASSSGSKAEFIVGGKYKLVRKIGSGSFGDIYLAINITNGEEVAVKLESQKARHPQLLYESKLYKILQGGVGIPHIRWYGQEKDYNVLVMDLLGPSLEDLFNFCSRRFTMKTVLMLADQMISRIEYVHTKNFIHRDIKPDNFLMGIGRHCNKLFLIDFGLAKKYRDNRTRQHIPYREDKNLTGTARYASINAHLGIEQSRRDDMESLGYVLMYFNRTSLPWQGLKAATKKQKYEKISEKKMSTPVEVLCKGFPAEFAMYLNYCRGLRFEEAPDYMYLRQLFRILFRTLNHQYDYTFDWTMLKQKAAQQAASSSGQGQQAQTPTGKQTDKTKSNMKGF
T5 sequence (Q96SW2 whole entry): as the sequence (Q96SW2 whole entry) above
T5 sequence (Q16531 whole entry partner): as the sequence (Q16531 whole entry partner) above

WEE1 = target: T6, WEE1 (Homo sapiens, UniProt P30291+Q96SW2); experiment: Western-blot assay, substrate protein degradation in hPBMCs: WEE1; type: cell-based; conditions: compounds at 50 nM and 500 nM, 24 hours
T6 construct: effects of the compounds of the present disclosure on the expression of target proteins in cells; endogenous in cells; host or cells: human PBMCs (hPBMCs)
T6 sequence (P30291 whole entry): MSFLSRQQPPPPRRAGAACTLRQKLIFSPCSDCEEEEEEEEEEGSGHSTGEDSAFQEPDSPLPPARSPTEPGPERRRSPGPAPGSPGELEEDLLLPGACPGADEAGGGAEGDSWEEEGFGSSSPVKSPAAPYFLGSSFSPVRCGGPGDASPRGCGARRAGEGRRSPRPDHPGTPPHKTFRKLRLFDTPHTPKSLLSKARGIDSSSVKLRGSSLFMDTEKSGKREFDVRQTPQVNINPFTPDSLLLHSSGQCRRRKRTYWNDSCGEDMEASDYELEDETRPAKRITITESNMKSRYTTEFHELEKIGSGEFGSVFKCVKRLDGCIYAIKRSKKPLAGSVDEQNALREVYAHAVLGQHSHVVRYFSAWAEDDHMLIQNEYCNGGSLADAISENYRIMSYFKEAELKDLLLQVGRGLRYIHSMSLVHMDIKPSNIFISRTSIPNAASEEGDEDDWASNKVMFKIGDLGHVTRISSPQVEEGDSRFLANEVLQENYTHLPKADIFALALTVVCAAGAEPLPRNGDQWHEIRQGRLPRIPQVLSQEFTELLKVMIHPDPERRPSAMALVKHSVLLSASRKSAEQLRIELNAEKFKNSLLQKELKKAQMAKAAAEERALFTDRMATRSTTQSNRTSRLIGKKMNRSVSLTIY
T6 sequence (Q96SW2 whole entry): as the sequence (Q96SW2 whole entry) above
T6 sequence (Q16531 whole entry partner): as the sequence (Q16531 whole entry partner) above

Row | SMILES | IC50 (MV-4-11) [nM] | IKZF1 substrate protein remaining % (IKZF1) | IKZF3 substrate protein remaining % (IKZF3) | GSPT1 substrate protein remaining % (GSPT1) | IKZF2 substrate protein remaining % (IKZF2) | CK1α substrate protein remaining % (CK1α) | WEE1 substrate protein remaining % (WEE1) | inhibition at 0.01 µM (MV-4-11) [%] | inhibition at 0.5 µM (MV-4-11) [%]
1 | O=C1CCN(N2Cc3cc(CN4CCN(c5ccccc5)CC4)ccc3C2=O)C(=O)N1 [GT-06696, 1-(1-oxo-5-((4-phenylpiperazin-1-yl)methyl)isoindolin-2-yl)dihydropyrimidine-2,4(1H,3H)-dione] | 100 to 300 | B ("B" is defined as 80%< substrate protein remaining %≤ 100%) | B ("B" is defined as 80%< substrate protein remaining %≤ 100%) | A ("A" is defined as 0% ≤ substrate protein remaining % ≤ 80%) | B ("B" is defined as 80%< substrate protein remaining %≤ 100%) | B ("B" is defined as 80%< substrate protein remaining %≤ 100%) | B ("B" is defined as 80%< substrate protein remaining %≤ 100%) |  | 
2 | COc1cccc(N2CCN(Cc3ccc4c(c3)CN(N3CCC(=O)NC3=O)C4=O)CC2)c1 [GT-06699, 1-(5-((4-(3-methoxyphenyl)piperazin-1-yl)methyl)-1-oxoisoindolin-2-yl)dihydropyrimidine-2,4(1H,3H)-dione] | 100 to 300 | B ("B" is defined as 80%< substrate protein remaining %≤ 100%) | B ("B" is defined as 80%< substrate protein remaining %≤ 100%) | A ("A" is defined as 0% ≤ substrate protein remaining % ≤ 80%) | B ("B" is defined as 80%< substrate protein remaining %≤ 100%) | B ("B" is defined as 80%< substrate protein remaining %≤ 100%) | B ("B" is defined as 80%< substrate protein remaining %≤ 100%) |  | 
3 | O=C1CCN(N2Cc3cc(CN4CCN(c5ccc(C(F)(F)F)cc5)CC4)ccc3C2=O)C(=O)N1 [GT-06700, 1-(1-oxo-5-((4-(4-(trifluoromethyl)phenyl)piperazin-1-yl)methyl)isoindolin-2-yl)dihydropyrimidine-2,4(1H,3H)-dione] | 50 to 100 |  |  |  |  |  |  |  | 
4 | O=C1CCN(N2Cc3cc(CN4CCC(c5ccccc5)CC4)ccc3C2=O)C(=O)N1 [GT-06884, 1-(1-oxo-5-((4-phenylpiperidin-1-yl)methyl)isoindolin-2-yl)dihydropyrimidine-2,4(1H,3H)-dione] | 500 to 1000 | B ("B" is defined as 80%< substrate protein remaining %≤ 100%) | B ("B" is defined as 80%< substrate protein remaining %≤ 100%) | A ("A" is defined as 0% ≤ substrate protein remaining % ≤ 80%) | B ("B" is defined as 80%< substrate protein remaining %≤ 100%) | B ("B" is defined as 80%< substrate protein remaining %≤ 100%) | B ("B" is defined as 80%< substrate protein remaining %≤ 100%) |  | 
5 | CC1(C)CCC(CN2C3CCC2CN(Cc2ccc4c(c2)C(=O)N(N2CCC(=O)NC2=O)C4=O)C3)=C(c2ccc(Cl)cc2)C1 [GT-07887, 5-((8-((4'-chloro-5,5-dimethyl-3,4,5,6-tetrahydro-[1,1'-biphenyl]-2-yl)methyl)-3,8-diazabicyclo[3.2.1]octan-3-yl)methyl)-2-(2,4-dioxotetrahydropyrimidin-1(2H)-yl)isoindoline-1,3-dione] |  |  |  |  |  |  |  | 25 to 30 | 30 to 40
6 | Cc1nc(N2CCN(Cc3ccc4c(c3)C(=O)N(N3CCC(=O)NC3=O)C4=O)CC2)c2c3c(sc2n1)CCCC3 [GT-08101, 2-(2,4-dioxotetrahydropyrimidin-1(2H)-yl)-5-((4-(2-methyl-5,6,7,8-tetrahydrobenzo[4,5]thieno[2,3-d]pyrimidin-4-yl)piperazin-1-yl)methyl)isoindoline-1,3-dione] |  |  |  |  |  |  |  | 18 to 25 | 25 to 30

More lines, main results first:

Row | IC50 (MV-4-11) [nM] | SMILES | IKZF1 substrate protein remaining % (IKZF1) | IKZF3 substrate protein remaining % (IKZF3) | GSPT1 substrate protein remaining % (GSPT1) | IKZF2 substrate protein remaining % (IKZF2) | CK1α substrate protein remaining % (CK1α) | WEE1 substrate protein remaining % (WEE1) | inhibition at 0.01 µM (MV-4-11) [%] | inhibition at 0.5 µM (MV-4-11) [%]
7 | 100 to 300 | O=C1CCN(N2Cc3cc(CN4CCN(c5cccc(Br)c5)CC4)ccc3C2=O)C(=O)N1 [GT-06698, 1-(5-((4-(3-bromophenyl)piperazin-1-yl)methyl)-1-oxoisoindolin-2-yl)dihydropyrimidine-2,4(1H,3H)-dione] | B ("B" is defined as 80%< substrate protein remaining %≤ 100%) | B ("B" is defined as 80%< substrate protein remaining %≤ 100%) | A ("A" is defined as 0% ≤ substrate protein remaining % ≤ 80%) | B ("B" is defined as 80%< substrate protein remaining %≤ 100%) | B ("B" is defined as 80%< substrate protein remaining %≤ 100%) | B ("B" is defined as 80%< substrate protein remaining %≤ 100%) |  | 
8 | 500 to 1000 | O=C1CCN(N2Cc3cc(CN4CCN(c5ccc(F)cc5)CC4)ccc3C2=O)C(=O)N1 [GT-06702, 1-(5-((4-(4-fluorophenyl)piperazin-1-yl)methyl)-1-oxoisoindolin-2-yl)dihydropyrimidine-2,4(1H,3H)-dione] | B ("B" is defined as 80%< substrate protein remaining %≤ 100%) | B ("B" is defined as 80%< substrate protein remaining %≤ 100%) | A ("A" is defined as 0% ≤ substrate protein remaining % ≤ 80%) | B ("B" is defined as 80%< substrate protein remaining %≤ 100%) | A ("A" is defined as 0% ≤ substrate protein remaining % ≤ 80%) | B ("B" is defined as 80%< substrate protein remaining %≤ 100%) |  | 
9 | 500 to 1000 | O=C1CCN(N2Cc3cc(CN4CCN(c5ccccc5Cl)CC4)ccc3C2=O)C(=O)N1 [GT-06703, 1-(5-((4-(2-chlorophenyl)piperazin-1-yl)methyl)-1-oxoisoindolin-2-yl)dihydropyrimidine-2,4(1H,3H)-dione] | B ("B" is defined as 80%< substrate protein remaining %≤ 100%) | B ("B" is defined as 80%< substrate protein remaining %≤ 100%) | A ("A" is defined as 0% ≤ substrate protein remaining % ≤ 80%) | B ("B" is defined as 80%< substrate protein remaining %≤ 100%) | A ("A" is defined as 0% ≤ substrate protein remaining % ≤ 80%) | B ("B" is defined as 80%< substrate protein remaining %≤ 100%) |  | 
10 | 500 to 1000 | O=C1CCN(N2Cc3cc(CN4CCN(c5ccc(Cl)cc5)CC4)ccc3C2=O)C(=O)N1 [GT-06765, 1-(5-((4-(4-chlorophenyl)piperazin-1-yl)methyl)-1-oxoisoindolin-2-yl)dihydropyrimidine-2,4(1H,3H)-dione] | B ("B" is defined as 80%< substrate protein remaining %≤ 100%) | B ("B" is defined as 80%< substrate protein remaining %≤ 100%) | B ("B" is defined as 80%< substrate protein remaining %≤ 100%) | B ("B" is defined as 80%< substrate protein remaining %≤ 100%) | A ("A" is defined as 0% ≤ substrate protein remaining % ≤ 80%) | B ("B" is defined as 80%< substrate protein remaining %≤ 100%) |  | 
11 | 500 to 1000 | O=C1CCN(N2Cc3cc(CN4CCN(c5ccccc5Br)CC4)ccc3C2=O)C(=O)N1 [GT-06766, 1-(5-((4-(2-bromophenyl)piperazin-1-yl)methyl)-1-oxoisoindolin-2-yl)dihydropyrimidine-2,4(1H,3H)-dione] | A ("A" is defined as 0% ≤ substrate protein remaining % ≤ 80%) | A ("A" is defined as 0% ≤ substrate protein remaining % ≤ 80%) | A ("A" is defined as 0% ≤ substrate protein remaining % ≤ 80%) | A ("A" is defined as 0% ≤ substrate protein remaining % ≤ 80%) | A ("A" is defined as 0% ≤ substrate protein remaining % ≤ 80%) | A ("A" is defined as 0% ≤ substrate protein remaining % ≤ 80%) |  | 
12 | 100 to 300 | O=C1CCN(N2Cc3cc(CN4CCN(c5cc(Cl)ccc5Cl)CC4)ccc3C2=O)C(=O)N1 [GT-06773, 1-(5-((4-(2,5-dichlorophenyl)piperazin-1-yl)methyl)-1-oxoisoindolin-2-yl)dihydropyrimidine-2,4(1H,3H)-dione] | B ("B" is defined as 80%< substrate protein remaining %≤ 100%) | A ("A" is defined as 0% ≤ substrate protein remaining % ≤ 80%) | A ("A" is defined as 0% ≤ substrate protein remaining % ≤ 80%) | A ("A" is defined as 0% ≤ substrate protein remaining % ≤ 80%) | A ("A" is defined as 0% ≤ substrate protein remaining % ≤ 80%) | A ("A" is defined as 0% ≤ substrate protein remaining % ≤ 80%) |  | 
13 | 300 to 500 | O=C1CCN(N2Cc3cc(CN4CCN(c5cccc(F)c5F)CC4)ccc3C2=O)C(=O)N1 [GT-06777, 1-(5-((4-(2,3-difluorophenyl)piperazin-1-yl)methyl)-1-oxoisoindolin-2-yl)dihydropyrimidine-2,4(1H,3H)-dione] | B ("B" is defined as 80%< substrate protein remaining %≤ 100%) | B ("B" is defined as 80%< substrate protein remaining %≤ 100%) | A ("A" is defined as 0% ≤ substrate protein remaining % ≤ 80%) | A ("A" is defined as 0% ≤ substrate protein remaining % ≤ 80%) | A ("A" is defined as 0% ≤ substrate protein remaining % ≤ 80%) | A ("A" is defined as 0% ≤ substrate protein remaining % ≤ 80%) |  | 
